Laboratory results as given in BindingDB's records for doi:10.1016/j.chembiol.2011.05.008 (Stanford University, 2011).
*1 amine or outer side, *2 acyl side, *3 side chain or, on linkers, in order; H or OH if unused. Where a SMILES comes first, the peptide text is derived from it. [ ]: non-standard residue; d: D form. The star is where a group is joined. ξ: configuration not given here. ξThr(3S) = C[C@H](O[*:3])C(N[*:1])C(=O)[*:2]; X2 = O=C(CN*)COC(=O)c1c2ccccc2cc2ccccc12; X1 = O=C(Cc1ccc(O)c([N+](=O)[O-])c1)*

Key:
Experiment in all cases: Fluorogenic Assay
Conditions in all cases: pH 8; 37 °C
[1] = molecular target: T1, Sentrin-specific protease 2 (Homo sapiens, UniProt Q9HC62)
T1 sequence (Q9HC62 whole entry): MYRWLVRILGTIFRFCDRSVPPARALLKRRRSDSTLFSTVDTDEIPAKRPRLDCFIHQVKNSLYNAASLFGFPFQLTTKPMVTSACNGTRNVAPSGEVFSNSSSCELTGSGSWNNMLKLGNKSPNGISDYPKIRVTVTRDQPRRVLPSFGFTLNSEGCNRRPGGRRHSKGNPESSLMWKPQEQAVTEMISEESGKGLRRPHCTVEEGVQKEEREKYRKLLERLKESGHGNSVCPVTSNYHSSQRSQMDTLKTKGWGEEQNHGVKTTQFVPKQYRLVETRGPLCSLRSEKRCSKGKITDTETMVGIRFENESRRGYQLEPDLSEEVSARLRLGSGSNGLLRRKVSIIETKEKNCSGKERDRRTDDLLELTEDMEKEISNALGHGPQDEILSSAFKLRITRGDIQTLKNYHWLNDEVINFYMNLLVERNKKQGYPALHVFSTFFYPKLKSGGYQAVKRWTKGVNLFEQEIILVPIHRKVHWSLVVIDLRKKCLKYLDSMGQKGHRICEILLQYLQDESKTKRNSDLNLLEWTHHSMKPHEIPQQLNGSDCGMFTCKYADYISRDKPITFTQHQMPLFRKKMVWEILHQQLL

[2] = molecular target: T2, Sentrin-specific protease 7 (Homo sapiens, UniProt Q9BQF6)
T2 sequence (Q9BQF6 whole entry): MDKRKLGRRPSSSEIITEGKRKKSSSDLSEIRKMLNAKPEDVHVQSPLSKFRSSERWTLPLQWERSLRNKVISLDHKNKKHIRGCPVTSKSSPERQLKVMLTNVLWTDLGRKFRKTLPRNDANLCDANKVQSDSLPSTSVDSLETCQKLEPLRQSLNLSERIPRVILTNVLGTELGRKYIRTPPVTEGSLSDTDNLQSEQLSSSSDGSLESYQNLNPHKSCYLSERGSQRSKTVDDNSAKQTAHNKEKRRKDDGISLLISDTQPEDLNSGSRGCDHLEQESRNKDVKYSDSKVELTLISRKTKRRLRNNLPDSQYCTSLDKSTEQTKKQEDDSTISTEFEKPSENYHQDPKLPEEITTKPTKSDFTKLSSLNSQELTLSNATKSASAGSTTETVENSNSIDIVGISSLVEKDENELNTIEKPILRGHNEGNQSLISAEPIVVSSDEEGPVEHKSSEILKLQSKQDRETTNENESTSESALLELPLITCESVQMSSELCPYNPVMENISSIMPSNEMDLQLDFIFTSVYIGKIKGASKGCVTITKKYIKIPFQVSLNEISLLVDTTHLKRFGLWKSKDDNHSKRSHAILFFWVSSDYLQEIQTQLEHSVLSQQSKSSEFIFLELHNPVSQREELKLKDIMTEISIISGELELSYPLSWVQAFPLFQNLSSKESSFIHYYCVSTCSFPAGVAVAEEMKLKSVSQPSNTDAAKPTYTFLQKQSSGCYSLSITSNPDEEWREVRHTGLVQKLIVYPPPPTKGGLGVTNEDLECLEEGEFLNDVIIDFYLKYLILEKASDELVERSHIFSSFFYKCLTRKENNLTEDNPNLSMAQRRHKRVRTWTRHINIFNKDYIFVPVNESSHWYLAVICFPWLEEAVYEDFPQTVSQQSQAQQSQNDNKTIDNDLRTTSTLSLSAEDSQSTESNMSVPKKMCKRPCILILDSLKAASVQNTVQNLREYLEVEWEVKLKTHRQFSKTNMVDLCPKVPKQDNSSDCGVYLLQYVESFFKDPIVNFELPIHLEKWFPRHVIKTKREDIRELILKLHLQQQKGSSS

[3] = molecular target: T3, Sentrin-specific protease 6 (Homo sapiens, UniProt Q9GZR1)
T3 sequence (Q9GZR1 whole entry): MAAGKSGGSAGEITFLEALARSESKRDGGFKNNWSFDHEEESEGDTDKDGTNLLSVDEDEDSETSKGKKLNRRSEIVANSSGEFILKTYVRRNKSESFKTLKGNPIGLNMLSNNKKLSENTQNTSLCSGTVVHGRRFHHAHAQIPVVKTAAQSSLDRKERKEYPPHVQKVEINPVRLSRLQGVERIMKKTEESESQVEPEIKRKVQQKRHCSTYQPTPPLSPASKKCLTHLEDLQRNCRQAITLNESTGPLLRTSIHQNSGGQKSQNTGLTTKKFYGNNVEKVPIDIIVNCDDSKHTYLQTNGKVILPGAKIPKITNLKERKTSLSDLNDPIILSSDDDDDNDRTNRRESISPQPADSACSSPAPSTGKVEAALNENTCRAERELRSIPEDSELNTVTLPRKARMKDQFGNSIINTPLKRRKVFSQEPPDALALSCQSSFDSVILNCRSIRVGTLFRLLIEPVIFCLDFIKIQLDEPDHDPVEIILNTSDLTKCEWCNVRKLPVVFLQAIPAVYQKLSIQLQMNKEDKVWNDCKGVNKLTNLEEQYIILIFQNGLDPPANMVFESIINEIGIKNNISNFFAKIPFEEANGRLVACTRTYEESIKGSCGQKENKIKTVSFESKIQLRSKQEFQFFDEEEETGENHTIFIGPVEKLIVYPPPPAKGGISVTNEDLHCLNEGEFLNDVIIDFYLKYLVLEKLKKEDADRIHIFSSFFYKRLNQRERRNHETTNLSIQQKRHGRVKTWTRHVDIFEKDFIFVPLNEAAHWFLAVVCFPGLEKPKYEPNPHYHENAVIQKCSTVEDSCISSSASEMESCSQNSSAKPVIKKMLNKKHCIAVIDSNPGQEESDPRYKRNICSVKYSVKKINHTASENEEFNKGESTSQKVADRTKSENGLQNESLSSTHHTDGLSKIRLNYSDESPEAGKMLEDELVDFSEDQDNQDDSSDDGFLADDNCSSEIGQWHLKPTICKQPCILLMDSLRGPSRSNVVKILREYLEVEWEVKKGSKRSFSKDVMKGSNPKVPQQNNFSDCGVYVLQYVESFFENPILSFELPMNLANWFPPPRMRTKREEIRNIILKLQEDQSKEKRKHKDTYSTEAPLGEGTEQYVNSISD

[4] = molecular target: T4, Sentrin-specific protease 1 (Homo sapiens, UniProt Q9P0U3)
T4 sequence (Q9P0U3 whole entry): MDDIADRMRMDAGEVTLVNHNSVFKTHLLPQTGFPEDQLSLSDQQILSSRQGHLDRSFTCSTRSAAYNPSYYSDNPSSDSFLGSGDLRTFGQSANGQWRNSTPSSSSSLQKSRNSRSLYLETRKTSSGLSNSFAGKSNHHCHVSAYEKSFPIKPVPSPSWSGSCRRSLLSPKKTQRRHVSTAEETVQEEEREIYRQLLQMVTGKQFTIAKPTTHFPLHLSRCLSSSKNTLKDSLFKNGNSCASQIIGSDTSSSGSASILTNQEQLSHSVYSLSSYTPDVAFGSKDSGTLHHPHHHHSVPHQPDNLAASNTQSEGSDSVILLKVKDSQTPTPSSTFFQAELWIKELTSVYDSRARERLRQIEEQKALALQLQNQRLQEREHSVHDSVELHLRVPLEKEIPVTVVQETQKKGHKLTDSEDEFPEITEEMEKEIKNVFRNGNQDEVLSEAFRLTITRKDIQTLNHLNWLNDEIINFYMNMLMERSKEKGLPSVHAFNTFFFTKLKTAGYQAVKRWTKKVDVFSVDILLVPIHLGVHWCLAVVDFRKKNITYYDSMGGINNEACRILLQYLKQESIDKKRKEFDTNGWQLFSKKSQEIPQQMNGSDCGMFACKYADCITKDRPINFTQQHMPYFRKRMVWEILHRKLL
Experimental: The fluorogenic substrate library screen was performed with hSENP1 in low salt tris buffer at final concentration of 2uM. Fluorophore release (AFC) production was measured using fluorescence plate reader at 405nm/510nm for 10-60min.

IC50 [1]	IC50 [2]	IC50 [3]	IC50 [4]	Structure (SMILES)
13.4 µM	> 20 µM	> 40 µM	23.1 µM	O=C(CNC(=O)c1ccc(CNC(=O)c2cccc(C(=O)O)c2)cc1)COC(=O)c1c2ccccc2cc2ccccc12 [VEA-401]
13.1 µM	> 70 µM	> 100 µM	32.5 µM	NC(=O)CNC(=O)c1ccc(C(=O)NNC(=O)[C@H]2O[C@@H]2C(=O)N(Cc2cccc3ccccc23)Cc2cccc3ccccc23)cc1 [VEA-417]
10.4 µM	> 70 µM	> 100 µM	22.4 µM	NC(=O)[C@H](CC(=O)O)NC(=O)c1ccc(C(=O)NNC(=O)[C@H]2O[C@@H]2C(=O)N(Cc2cccc3ccccc23)Cc2cccc3ccccc23)cc1 [VEA-422]

More lines, now with the values behind:

Structure (SMILES)	IC50 [1]	IC50 [2]	IC50 [3]	IC50 [4]
O=C(O)CN(NC(=O)c1ccc(CNC(=O)c2cccc(C(=O)O)c2)cc1)C(=O)[C@H]1O[C@@H]1C(=O)N(Cc1cccc2ccccc12)Cc1cccc2ccccc12 [JCP-666]	7 µM	> 70 µM	> 100 µM	13.8 µM
O=C(O)c1cccc(C(=O)NCc2ccc(C(=O)NNC(=O)[C@H]3O[C@@H]3C(=O)N(Cc3cccc4ccccc34)Cc3cccc4ccccc34)cc2)c1 [VEA-260]	3.7 µM	36.5 µM	> 100 µM	7.1 µM
C[C@H](O)C(NC(=O)[C@H](CCC(N)=O)NC(=O)Cc1ccc(O)c([N+](=O)[O-])c1)C(=O)NCC(=O)NCC(=O)COC(=O)c1c2ccccc2cc2ccccc12 (some centres not stated) [VEA-499]	0.25 µM	> 100 µM	> 60 µM	3.6 µM
CC(C)C[C@H](NC(=O)Cc1ccc(O)c([N+](=O)[O-])c1)C(=O)N[C@@H](CCCNC(=N)N)C(=O)NCC(=O)NCC(=O)COC(=O)c1c2ccccc2cc2ccccc12 [VEA-561]	5.7 µM	4.3 µM	4.2 µM	> 25 µM
C[C@H](O)C(NC(=O)[C@H](CCC(N)=O)NC(=O)[C@H](CCC(N)=O)NC(=O)Cc1ccc(O)c([N+](=O)[O-])c1)C(=O)NCC(=O)NCC(=O)COC(=O)c1c2ccccc2cc2ccccc12 (stereo partly drawn) [VEA-500] (X1-QQ[ξThr(3S)]G-X2)	0.86 µM	> 100 µM	> 40 µM	> 20 µM
